Reference: patent EP0326331B1, “Substituted quinolines and cinnolines” (Dow AgroSciences LLC, priority 1988, dated 1989)
Read-outs that look alike come from different tables or passages of the source.

What was measured:
Format in all cases: in vivo
[1] = system: Erysiphe graminis tritici (powdery mildew); assay: Test 1 greenhouse foliar spray screen, powdery mildew on wheat; details: for POWD MDEW: disease control rating, foliar spray on wheat, 400 ppm (+++ at 100 ppm); for pest or weed control at 400 ppm: Blumeria graminis, foliar, Test 1, foliar spray on wheat, disease control rating at 400 ppm / 100 ppm, read-out: POWD MDEW
[2] = system: Pyricularia oryzae (rice blast); assay: whole plant or invertebrate; details: for RICE BLAST: disease control rating, foliar spray on rice, 400 ppm (+++ at 100 ppm); for pest or weed control at 400 ppm: Pyricularia oryzae, foliar, read-out: RICE BLAST, Test 1, foliar spray on rice, disease control rating at 400 ppm / 100 ppm
[3] = system: Puccinia recondita tritici (leaf rust); assay: Test 1 greenhouse foliar spray screen, leaf rust on wheat; details: for LEAF RUST: disease control rating, foliar spray on wheat, 400 ppm (+++ at 100 ppm); for pest or weed control at 400 ppm: Puccinia recondita, foliar, Test 1, foliar spray on wheat, disease control rating at 400 ppm / 100 ppm
[4] = system: Botrytis cinerea (gray mold); assay: Test 1 greenhouse foliar spray screen, gray mold on grape berries; details: for GRAY MOLD: disease control rating, spray on grape berries, 400 ppm (+++ at 100 ppm); for pest or weed control at 400 ppm: Botrytis cinerea, foliar, Test 1, spray on grape berries, disease control rating at 400 ppm / 100 ppm
[5] = system: Pseudoperonospora cubensis (downy mildew); assay: Test 1 greenhouse foliar spray screen, downy mildew on squash; details: for DOWN MDEW: disease control rating, foliar spray on squash, 400 ppm (+++ at 100 ppm); for pest or weed control at 400 ppm: Pseudoperonospora cubensis, foliar, Test 1, foliar spray on squash, disease control rating at 400 ppm / 100 ppm, read-out: DOWN MDEW
[6] = system: Cercospora beticola (leaf spot); assay: Test 1 greenhouse foliar spray screen, leaf spot on sugar beet; details: for LEAF SPOT: disease control rating, foliar spray on sugar beet, 400 ppm (+++ at 100 ppm); for pest or weed control at 400 ppm: Cercospora beticola, Test 1, foliar spray on sugar beet, disease control rating at 400 ppm / 100 ppm
[7] = system: Venturia inaequalis (apple scab); assay: Test 1 greenhouse foliar spray screen, apple scab on apple seedling; details: for APPL SCAB: disease control rating, foliar spray on apple seedling, 400 ppm (+++ at 100 ppm); for pest or weed control at 400 ppm: Venturia inaequalis, Test 1, foliar spray on apple seedling, disease control rating at 400 ppm / 100 ppm, read-out: APPL SCAB
[8] = system: Septoria tritici (leaf blotch); assay: Test 1 greenhouse foliar spray screen, leaf blotch on wheat; details: for LEAF BLOT: disease control rating, foliar spray on wheat, 400 ppm (+++ at 100 ppm); for pest or weed control at 400 ppm: Zymoseptoria tritici, Test 1, foliar spray on wheat, disease control rating at 400 ppm / 100 ppm, read-out: LEAF BLOT
[9] = system: southern armyworm (Spodopetra eridania Cramer); assay: Mite/insect screen, SAW; details: Spodoptera eridania, foliar, percent mortality, foliar spray on squash, read-out: SAW RESULTS %; for mortality at 200 ppm: rate 200 ppm; for mortality at 400 ppm: rate 400 ppm
Procedure, shortened: (§1)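 Formulation: acetone/alcohol 50:50 + sulfonate/nonionic emulsifiers, water-diluted to indicated concs. Spray both leaf surfaces to runoff, 10 psi; dry 1 h. Armyworm: 2 excised uninfested leaves in Petri dish. Score % mortality after standard exposure.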

[10] = system: Twospotted spider mites (Tetranychus urticae Koch); assay: Mite/insect screen, SM; details: Tetranychus urticae, foliar, percent mortality, foliar spray on squash, read-out: SM RESULTS %; for mortality at 200 ppm: rate 200 ppm; for mortality at 400 ppm: rate 400 ppm
Procedure, shortened: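 Compounds dissolved in 50:50 acetone/alcohol containing sulfonate/nonionic emulsifier blends, then diluted with water to the indicated concentrations. Leaves sprayed on both surfaces to runoff at 10 psi and dried one hour. Percent mortality scored after standard exposure periods.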

[11] = system: melon aphids (Aphis gossypii Glover); assay: Mite/insect screen, MA; details: Aphis gossypii, foliar, percent mortality, foliar spray on squash, read-out: MA RESULTS %; for mortality at 200 ppm: rate 200 ppm; for mortality at 400 ppm: rate 400 ppm
Procedure, shortened: as §1

corn rootworm = assay: Mite/insect screen, CRW; details: read-out: CRW RESULTS %; for mortality at 24 ppm: CRW rate 24.00 ppm
Procedure, shortened: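 Percent mortality is evaluated once the standard exposure period ends. Test material is applied as a water dilution of an acetone/alcohol (50:50) stock carrying two sulfonate/nonionic emulsifiers (23 and 13 g per liter).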

[12] = percent mortality, CRW rate 12.00 ppm

Structure (SMILES) | POWD MDEW [1] | RICE BLAST [2] | LEAF RUST [3] | GRAY MOLD [4] | DOWN MDEW [5] | LEAF SPOT [6] | APPL SCAB [7] | LEAF BLOT [8] | mortality at 200 ppm [9] | mortality at 200 ppm [10] | mortality at 200 ppm [11] | mortality at 12 ppm (corn rootworm; [12]) | mortality at 400 ppm [9] | mortality at 400 ppm [10] | mortality at 400 ppm [11] | mortality at 24 ppm (corn rootworm; percent mortality) | pest or weed control at 400 ppm [1] | pest or weed control at 400 ppm [2] | pest or weed control at 400 ppm [3] | pest or weed control at 400 ppm [4] | further results
Fc1cccc2c(NCCc3c[nH]c4ccccc34)ccnc12 [Example 176, 8-fluoro-N-[2-(1H-indol-3-yl)ethyl]-4-quinolinamine] | + (20-89% control at 400 ppm) | + (20-89% control at 400 ppm) | + (20-89% control at 400 ppm) | - (0-19% control at 400 ppm) | ++ (90-100% control at 400 ppm) | + (20-89% control at 400 ppm) | - (0-19% control at 400 ppm) | - (0-19% control at 400 ppm) | 0% | 0% | 0% | 0% |  |  |  |  |  |  |  |  | 
CC(=O)N(CCC1=CCCCC1)c1ccnc2c(C)cc(C)cc12 [Example 179, N-[2-(1-cyclohexenyl)ethyl]-N-(6,8-dimethyl-4-quinolinyl)acetamide] | - (0-19% control at 400 ppm) | - (0-19% control at 400 ppm) | - (0-19% control at 400 ppm) | - (0-19% control at 400 ppm) | ++ (90-100% control at 400 ppm) | + (20-89% control at 400 ppm) | + (20-89% control at 400 ppm) | - (0-19% control at 400 ppm) | 0% | 0% | 0% | 0% | 0% | 0% | 0% | 0% |  |  |  |  | 
Fc1cccc2c(NCCc3ccccn3)ccnc12 [Example 180, 8-fluoro-N-[2-(2-pyridinyl)ethyl]-4-quinolinamine] | ++ (90-100% control at 400 ppm) | + (20-89% control at 400 ppm) | - (0-19% control at 400 ppm) | - (0-19% control at 400 ppm) | ++ (90-100% control at 400 ppm) | + (20-89% control at 400 ppm) | - (0-19% control at 400 ppm) | + (20-89% control at 400 ppm) | 0% | 0% | 0% | 0% | 0% | 0% | 0% | 0% |  |  |  |  | 
Fc1cccc2c(NCCc3ccccc3)cc(NCCc3ccccc3)nc12 [Example 183, 8-fluoro-N,N'-bis(2-phenylethyl)-2,4-quinolinediamine] | - (0-19% control at 400 ppm) | ++ (90-100% control at 400 ppm) | ++ (90-100% control at 400 ppm) | - (0-19% control at 400 ppm) | +++ (90-100% control at 100 ppm) | + (20-89% control at 400 ppm) | + (20-89% control at 400 ppm) | - (0-19% control at 400 ppm) | 0% | 0% | 0% | 0% |  |  |  |  |  |  |  |  | 
CC(CNc1cc(NCC(C)c2ccccc2)c2ccccc2n1)c1ccccc1 (centres unmarked) [Example 184, N,N'-bis(2-phenylpropyl)-2,4-quinolinediamine] | - (0-19% control at 400 ppm) | + (20-89% control at 400 ppm) | ++ (90-100% control at 400 ppm) | - (0-19% control at 400 ppm) | ++ (90-100% control at 400 ppm) | - (0-19% control at 400 ppm) | - (0-19% control at 400 ppm) | - (0-19% control at 400 ppm) | 0% | 0% | 0% | 0% |  |  |  |  |  |  |  |  | 
Clc1ccc(CCNc2ccc3c(NCCc4ccc(Cl)cc4)ccnc3c2)cc1 [Example 186, N,N'-bis[2-(4-chlorophenyl)ethyl]-4,7-quinolinediamine] | - (0-19% control at 400 ppm) | - (0-19% control at 400 ppm) | + (20-89% control at 400 ppm) | - (0-19% control at 400 ppm) | +++ (90-100% control at 100 ppm) | + (20-89% control at 400 ppm) | - (0-19% control at 400 ppm) | + (20-89% control at 400 ppm) | 0% | 0% | 0% | 0% | 0% | 0% | 0% | 0% |  |  |  |  | 
COc1ccc(CCNc2ccc3c(NCCc4ccc(OC)cc4)ccnc3c2)cc1 [Example 187, N,N'-bis[2-(4-methoxyphenyl)ethyl]-4,7-quinolinediamine] | - (0-19% control at 400 ppm) | + (20-89% control at 400 ppm) | + (20-89% control at 400 ppm) | - (0-19% control at 400 ppm) | +++ (90-100% control at 100 ppm) | - (0-19% control at 400 ppm) | - (0-19% control at 400 ppm) | - (0-19% control at 400 ppm) | 0% | 0% | 0% | 0% | 0% | 0% | 0% | 0% |  |  |  |  | 
c1ccc(CCNc2ccnc3c(NCCc4ccccc4)cccc23)cc1 [Example 189, N,N'-bis(2-phenylethyl)-4,8-quinolinediamine] |  |  |  |  |  |  |  |  | 0% | 0% | 0% | 0% |  |  |  |  | 0 to 19% | 20 to 89% | 20 to 89% | 0 to 19% | pest or weed control at 400 ppm [5]: 20 to 89%; pest or weed control at 400 ppm [6]: 0 to 19%; pest or weed control at 400 ppm [7]: 0 to 19%; pest or weed control at 400 ppm [8]: 0 to 19%
Fc1cccc2c(NCCc3ccc(Cl)cc3Cl)cc(NCCc3ccc(Cl)cc3Cl)nc12 [Example 190, N,N'-bis[2-(2,4-dichlorophenyl)ethyl]-8-fluoro-2,4-quinolinediamine] |  |  |  |  |  |  |  |  | 0% | 0% | 0% |  |  |  |  |  | 0 to 19% | 20 to 89% | 90 to 100% | 0 to 19% | pest or weed control at 400 ppm [5]: 0 to 19%; pest or weed control at 400 ppm [6]: 0 to 19%; pest or weed control at 400 ppm [7]: 0 to 19%; pest or weed control at 400 ppm [8]: 0 to 19%; mortality at 12 ppm (corn rootworm): 0%
C1=C(CCNc2ccc3nccc(NCCC4=CCCCC4)c3c2)CCCC1 [Example 192, N,N'-bis[2-(1-cyclohexen-yl)ethyl]-4,6-quinolinediamine] |  |  |  |  |  |  |  |  | 0% | 0% | 0% | 0% | 0% | 0% | 0% | 0% | 0 to 19% | 0 to 19% | 90 to 100% | 0 to 19% | pest or weed control at 400 ppm [5]: 90 to 100%; pest or weed control at 400 ppm [6]: 0 to 19%; pest or weed control at 400 ppm [7]: 0 to 19%; pest or weed control at 400 ppm [8]: 20 to 89%
